11 molecules from PubChem BioAssay (NCI) can be followed below.

Test systems include COLO 205 colon; MOLT-4 leukemia; HCT-15 colon; CCRF-CEM leukemia; SF-295 CNS; HL-60(TB) leukemia; HOP-62 NSCLC; A498 renal; MDA-MB-435; UACC-62 melanoma; SR leukemia; HS 578T breast.
Holding throughout (assay): NCI-60 cell line screen, 48 h

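48-hour exposure; five concentrations; linearly interpolated endpoints. TGI denotes the concentration required for complete inhibition of growth.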

Take `Cc1ccc(/C=C2\CCCCCC2=O)cc1`: the TGI in the experiment on COLO 205 colon, in the experiment with MOLT-4 leukemia, with HCT-15 colon, in the experiment on CCRF-CEM leukemia, with SF-295 CNS and in the experiment with HL-60(TB) leukemia was above 100 µM each time. Also, the TGI with HOP-62 NSCLC, with A498 renal, with MDA-MB-435, with UACC-62 melanoma, in the experiment on SR leukemia and with HS 578T breast was above 100 µM each time.
Turning to `COc1cc(/C=C2\CC(C)C/C(=C\c3ccc(O)c(OC)c3)C2=O)ccc1O` (configuration not stated), the TGI was 24.7 µM with COLO 205 colon; 17.8 µM in the experiment on MOLT-4 leukemia; 4.93 µM with HCT-15 colon; above 45 µM in the experiment with CCRF-CEM leukemia; 29.8 µM in the experiment on SF-295 CNS; above 30.6 µM with HL-60(TB) leukemia. For the same molecule, the TGI in the experiment on HOP-62 NSCLC is 9.11 µM; in the experiment on A498 renal, 9.61 µM; in the experiment with MDA-MB-435 it was 6.21 µM; in the experiment on UACC-62 melanoma it was 4.01 µM; with SR leukemia it was above 25.5 µM; with HS 578T breast, 10.4 µM.
With `[O-]/[N+](=N/c1ncc(-c2ccccc2)cn1)c1ncc(-c2ccccc2)cn1`, the TGI in the experiment with COLO 205 colon, in the experiment with MOLT-4 leukemia, in the experiment on HCT-15 colon, with CCRF-CEM leukemia, in the experiment with SF-295 CNS and in the experiment with HL-60(TB) leukemia was above 100 µM each time. The TGI in the experiment with HOP-62 NSCLC, in the experiment on A498 renal, with MDA-MB-435, in the experiment on UACC-62 melanoma, in the experiment on SR leukemia and in the experiment with HS 578T breast was above 100 µM each time.
Turning to `Cc1ncc([N+](=O)[O-])n1CCNC(=O)Cn1ccnc1[N+](=O)[O-]`, the TGI in the experiment on COLO 205 colon, with MOLT-4 leukemia, in the experiment with HCT-15 colon, in the experiment with CCRF-CEM leukemia, with SF-295 CNS and in the experiment with HL-60(TB) leukemia was above 100 µM throughout. In addition, the TGI in the experiment on HOP-62 NSCLC, with A498 renal, in the experiment on MDA-MB-435, in the experiment with UACC-62 melanoma, in the experiment on SR leukemia and with HS 578T breast was above 100 µM each time.
Take `O=C1Nc2ccccc2/C1=N/N1C(=O)/C(=C/c2ccccc2S)N=C1c1ccccc1`: the TGI with COLO 205 colon, in the experiment with MOLT-4 leukemia, with HCT-15 colon, with CCRF-CEM leukemia, in the experiment with SF-295 CNS and in the experiment with HL-60(TB) leukemia was above 100 µM throughout. Further, the TGI in the experiment on HOP-62 NSCLC, with A498 renal, in the experiment on MDA-MB-435, in the experiment on UACC-62 melanoma, in the experiment on SR leukemia and with HS 578T breast was above 100 µM throughout.
For the molecule `CC1=NN(C(=O)CC(=O)Nc2ccc(Cl)cc2)C(=O)C1N=Nc1ccc(S(=O)(=O)c2ccc(N=NC3C(=O)N(C(=O)CC(=O)Nc4ccc(Cl)cc4)N=C3C)cc2)cc1` (configuration not stated), the TGI in the experiment on COLO 205 colon, with MOLT-4 leukemia, with HCT-15 colon, in the experiment with CCRF-CEM leukemia, in the experiment on SF-295 CNS and with HL-60(TB) leukemia was above 100 µM each time. The TGI in the experiment with HOP-62 NSCLC, with A498 renal, in the experiment with MDA-MB-435, in the experiment on UACC-62 melanoma, in the experiment with SR leukemia and in the experiment with HS 578T breast was above 100 µM each time.
Consider `CC(C)N(C(=O)C12C3(C(=O)C(C)(C)C)C4C5(C#N)C3C1(C(=O)C(C)(C)C)C5C42C(=O)C(C)(C)C)C(C)C` (configuration not stated), for which the TGI with COLO 205 colon, in the experiment with MOLT-4 leukemia, in the experiment on HCT-15 colon, with CCRF-CEM leukemia, in the experiment on SF-295 CNS and in the experiment with HL-60(TB) leukemia was above 100 µM throughout. For the same molecule, the TGI in the experiment with HOP-62 NSCLC, in the experiment on A498 renal, in the experiment with MDA-MB-435, in the experiment with UACC-62 melanoma, with SR leukemia and in the experiment on HS 578T breast was above 100 µM in each case.
For `CC(=O)c1c2c(cc3c1CC1(C3)Cc3cc4c(c(C(C)=O)c3C1)CCCC4)CCCC2`, the TGI in the experiment with COLO 205 colon is above 100 µM; in the experiment on MOLT-4 leukemia it was 76.5 µM; with HCT-15 colon it was above 100 µM; with CCRF-CEM leukemia it was 44 µM; with SF-295 CNS, above 100 µM; with HL-60(TB) leukemia it was 40 µM. Besides, the TGI in the experiment on HOP-62 NSCLC was above 100 µM; in the experiment on A498 renal, above 100 µM; in the experiment on MDA-MB-435, above 100 µM; in the experiment on UACC-62 melanoma, above 100 µM; in the experiment with SR leukemia it was 53.2 µM; in the experiment with HS 578T breast, above 100 µM.
As to `O=C(c1ccc(Cl)c(Cl)c1)N(C(=O)N1CCN(c2ccccc2)CC1)S(=O)(=O)c1ccccc1`, the TGI with COLO 205 colon is above 100 µM; with MOLT-4 leukemia it was 41.8 µM; in the experiment with HCT-15 colon, 59.1 µM; with CCRF-CEM leukemia, above 100 µM; with SF-295 CNS, above 100 µM; in the experiment with HL-60(TB) leukemia, above 100 µM. For the same molecule, the TGI with HOP-62 NSCLC, with A498 renal, in the experiment with MDA-MB-435, with UACC-62 melanoma, in the experiment with SR leukemia and in the experiment with HS 578T breast was above 100 µM each time.
Take `Cc1ccccc1C1CC(=O)CC(c2ccccc2C)C12C(=O)NC(=S)NC2=O` (configuration not stated): the TGI is 42.4 µM with COLO 205 colon; above 100 µM with MOLT-4 leukemia; 56.6 µM in the experiment with HCT-15 colon; 70.4 µM with CCRF-CEM leukemia; above 100 µM in the experiment with SF-295 CNS; 59.2 µM in the experiment on HL-60(TB) leukemia. The TGI with HOP-62 NSCLC is above 100 µM; in the experiment on A498 renal, 72.2 µM; in the experiment with MDA-MB-435, 62.4 µM; with UACC-62 melanoma it was 38.2 µM; in the experiment on SR leukemia it was above 100 µM; in the experiment on HS 578T breast it was 97.2 µM.
In the case of `Nc1ncc(N)c(NCC2(CO)CC(CCc3ccccc3)C2)n1` (configuration not stated), the TGI amounted to 16.8 µM with COLO 205 colon; 8.56 µM in the experiment with MOLT-4 leukemia; 36.5 µM with HCT-15 colon; 4.34 µM in the experiment with CCRF-CEM leukemia; 24.5 µM with SF-295 CNS; 0.987 µM with HL-60(TB) leukemia. The TGI came to 28.3 µM in the experiment on HOP-62 NSCLC; 27.4 µM in the experiment on A498 renal; 22.9 µM in the experiment on MDA-MB-435; 21.1 µM in the experiment with UACC-62 melanoma; 13.2 µM in the experiment with SR leukemia; 36.1 µM with HS 578T breast.
